In patent US20220202799A1, “PHARMACEUTICAL FORMULATIONS CONTAINING P2Y14 ANTAGONISTS” (priority 2019, published 2022):
Values joined by “and” are separate entries in the source; they are usually repeats but may differ in a detail not shown here. Equal values may be shown once.

Experiment: Effect of pH on solubility of PPTN in aqueous medium
Assay type: physicochemical
Procedure: The effect of pH on the solubility of PPTN in an aqueous medium was analyzed. Solutions of PPTN in either water or phosphate buffer at various pH values were incubated with agitation for 24-48 hours at room temperature then filtered to remove precipitates, and the PPTN concentration of the filtered solution was analyzed.

Cl.O=C(O)c1cc(-c2ccc(C3CCNCC3)cc2)c2ccc(-c3ccc(C(F)(F)F)cc3)cc2c1 [KB-1801.HCl]
[KB-1801.HCl] by HPLC Analysis (solubility) (pH 1.9, 10 mM phosphate buffer, 24-48 h, ~22° C.): 0.0008 mg/mL and 1.6 μM
[KB-1801.HCl] by HPLC Analysis (solubility) (pH 2.8, 10 mM phosphate buffer, 24-48 h, ~22° C.): 0.0255 mg/mL and 50 μM
[KB-1801.HCl] by HPLC Analysis (solubility) (pH 4.8, 0 mM buffer (DIW), >24 h, ~25° C. (from initial sonication)): ~0.1 mg/mL and 195 μM
[KB-1801.HCl] by HPLC Analysis (solubility) (pH 6.6, 10 mM phosphate buffer, 24-48 h, ~22° C.): 0.0001 mg/mL and 0.2 μM
[KB-1801.HCl] by HPLC Analysis (solubility) (pH 8.2, 10 mM phosphate buffer, 24-48 h, ~22° C.): 0.0001 mg/mL and 0.2 μM
